Measured values from US8168193B2, “Molecules, compositions, methods and kits for applications associated with flaviviruses” (National University of Singapore, priority 2003, dated 2012).
No end group written: not given here.

Legend:
West Nile virus [1] = assay: Competitive physiological ligand binding assay, virus entry into Vero cells; type: cell-based; conditions: Vero cells incubated with ligand 1 hr, then radiolabeled virus 1 hr at 37° C.
Method: Competitive physiological ligand binding assay with fibronectin, vitronectin, heparin, chrondriotin sulphate, laminin and the peptides RGD1 and RGE1 reported in the sequence listing as SEQ ID NO: 6 and SEQ ID NO:7 was carried out. In particular Vero cells were incubated with different concentrations of ECM proteins, RGD peptides, or anti-integrin antibodies at 4° C. or 37° C. for 1 hr, washed, incubated with 50 μl of radiolabeled WNV, JEV at 37° C. for 1 hr and assessed for virus entry.

WNV [2] = assay: Competitive inhibition of WNV entry into Vero cells with soluble recombinant WNV envelope DIII; type: cell-based, West Nile virus; conditions: 5 to 100 μg/ml, 30 min at 37° C.
Method: (§1) Vero cells were first incubated with different concentration (5 to 100 μg/ml) of DIII protein or BSA for 30 min at 37° C. Excess or unbound protein is removed by washing thrice with PBS. Radiolabeled WNV or Dengue virus (250 plaque forming unit, PFU) is added and incubated for 1 h at 37° C. Virus entry into Vero cells was determined by radioactive counts from a scintillation counter.

Dengue virus = assay: Competitive inhibition of Dengue virus entry into Vero cells with soluble recombinant WNV envelope DIII; type: cell-based; conditions: at high concentration used
Method: as §1

[3] = tested on: 105-kDa cell receptor protein; assay: Virus Overlay Protein Binding Assay (VOPBA) on Vero plasma membrane proteins; conditions: for West Nile virus binding to treated membrane proteins of Vero cells (VOPBA): Vero plasma membrane proteins; for West Nile virus binding after removal of papain (VOPBA): Vero cells, papain 50 mU/ml 45 minutes, 0, 2 and 4 hours after removal, with or without cycloheximide 100 μg/ml
West Nile virus [4] = assay: Protease, phospholipase, glycosidase, periodate and lectin pretreatment of Vero cells, then West Nile virus infection, plaque assay; type: cell-based; conditions: Vero cells pretreated 45 min at 25° C.; for effect of pretreatment of Vero cells on West Nile virus entry/infection: plaque assay at 12 hours p.i.
Method: Cell monolayers (Vero cells or N2A) of approximately 5×10^6 cells were washed twice with phosphate buffer saline (PBS) before enzyme treatment. Cell monolayers were incubated with the proteases and phospholipases, glycosidases and lectins (as listed below) in PBS at a pH of 7.0 for 45 min at 25° C. […] Cell monolayers were then incubated with West Nile virus (MOI=10) at 37° C. for 1 hour. Excess virus particles were inactivated with sodium citrate buffer (pH 2.8) for 10 minutes and the cell monolayer washed twice with PBS. Vero cells were then incubated at 37° C. for 12 hours. At 12 hours p.i., virus titers from the treated samples were determined by plaque assays. Three independent experiments were conducted for each set of enzymes used.
The enzymes used were; Proteases: Proteinase K (EC 3.4.21.64) from Tritirachium album, concentration of 10 μg/ml, 1 μg/ml & 0.1 μg/ml; α-chymotrypsin (EC 3.4.21.1) from bovine pancreas, concentration of 10 μg/ml & 1 μg/ml; trypsin (EC 3.4.21.4) from bovine pancreas, concentration of 10 μg/ml, 1 μg/ml & 0.1 μg/ml; Bromelain (EC 3.4.22.32) from pineapple stem, concentration of 20 mUnit/ml, 2 mUnit/ml & 0.2 mUnit/ml; Papain (EC 3.4.22.2) from Carica papaya, concentration of 50 mUnit/ml & 10 mUnit/ml. Phospholipases: Phospholipase A2 (EC 3.1.1.4) from bovine pancreas, concentration of 1 UNIT/ml & 0.1 UNIT/ml; Phospholipase C (EC 3.1.1.4.3) from Clostridium perfringes, concentration of 10 UNIT/ml & 1 UNIT/ml; Phospholipase D (EC 3.1.4.4) from peanut, concentration of 100 UNIT/ml & 10 UNIT/ml; Glycosidases: Endoglycosidase H (EC 3.2.1.96) from Streptomyces plicatus, concentration of 100 mUNIT/ml & 10 mUNIT/ml; O-glycosidase (EC3.2.1.97) from Diploccus pneumoniae, concentration of 1 mUNIT/ml & 0.1 mUNIT/ml; α-mannosidase (EC 3.2.1.24) from almonds, concentration of 1000 μ/ml, 100 μg/ml & 10 μg/ml; α-Fucosidase (EC 3.2.1.11) from almond meal, concentration of 100 mUNIT/ml & 10 mUNIT/ml; Heparinase I (EC 4.2.2.7) and Heparinase III (EC 4.2.2.2.8) from Flavobacterium heparinum, concentration of 1 UNIT/ml & 0.1 UNIT/ml. Lectins: Concanavalin-A from Jack bean, wheat germ agglutinin from Triticum vulgaris, phytohemagglutinin from Phaseolus spp., concentration of 1000 μg/ml & 100 μg/ml; Sodium periodate concentration of 1 mM & 0.1 mM. Cell viability after enzyme treatment was assessed by Trypan blue staining and observation under phase contrast microscope BX 60.
The enzymes or chemicals were used at concentrations known to be effective in reducing the entry of other known viruses (Borrow and Oldstone, 1992; Ramos-Castaneda et al., 1997; Salas-Benito and del Angel, 1997; Martinez-Barragan and del Angel, 2001). Results are expressed as the number of log unit inhibition with respect to untreated samples. At the same time, cell viability after treatments was also assessed by Trypan blue exclusion method.

[5] = tested on: 105-kDa cell receptor protein; assay: Virus Overlay Protein Binding Assay (VOPBA) on N2A plasma membrane proteins
WNV [6] = conditions: Vero cells, EDTA 3-12 mM, 2 hrs at 37° C.

Row | Molecule | West Nile virus binding to treated membrane proteins of Vero cells (VOPBA) [3] | effect of pretreatment of Vero cells on West Nile virus entry/infection (West Nile virus [4]) | further results
1 | laminin | – | – | inhibition of West Nile virus infection by competitive ligands (West Nile virus [1]): partial inhibition
2 | fibronectin | – | – | inhibition of West Nile virus infection by competitive ligands (West Nile virus [1]): partial inhibition
3 | DIII protein: soluble His-tagged recombinant West Nile virus envelope domain III (350-390), comprising SEQ ID NO: 19 (SIPKLEIAGXFKDL; X: residue not identified in the source) | – | – | inhibition of entry of WNV into Vero cells (WNV [2]): significantly blocked; inhibition of entry of Dengue virus into Vero cells (Dengue virus): slightly block
4 | Concanavalin-A | block the binding | prevented the entry | –
5 | phytohemagglutinin | no effect | – | –
6 | C[C@@H]1C[C@@H]([C@H](O)CC2CC(=O)NC(=O)C2)C(=O)[C@@H](C)C1 [cycloheximide] | – | – | West Nile virus binding after removal of papain (VOPBA) [3]: virus binding was also observed
7 | [Na+].[O-][I+3]([O-])([O-])[O-] [sodium periodate] | reduced in a dosage-dependent manner | substantially reduced | –
8 | Heparinase I | – | minimal effect | –
9 | α-Fucosidase | – | minimal effect | –
10 | OCCS [β-mercaptoethanol] | did not disrupt virus binding | – | West Nile virus binding to treated membrane proteins of N2A cells (VOPBA) [5]: did not disrupt virus binding
11 | RGD peptide: peptide RGD1 reported in the sequence listing as SEQ ID NO: 6 (RFDS; RGD1 amino acid sequence) | – | – | inhibition of West Nile virus infection by competitive ligands (West Nile virus [1]): partial inhibition
12 | Heparinase III | – | minimal effect | –
13 | O=C(O)CN(CCN(CC(=O)O)CC(=O)O)CC(=O)O [EDTA] | – | – | binding and subsequent entry of West Nile virus (WNV [6]): did not block
14 | O-glycosidase | did not affect | minimal effect | West Nile virus binding to treated membrane proteins of N2A cells (VOPBA) [5]: did not affect
15 | α-mannosidase | No binding | significant inhibition | West Nile virus binding to treated membrane proteins of N2A cells (VOPBA) [5]: No binding
16 | Endoglycosidase H (protein, UniProt P04067 43-313, looked up, Endoglycosidase H (EC 3.2.1.96) from Streptomyces plicatus) Endo-beta-N-acetylglucosaminid …: APAPVKQGPTSVAYVEVNNNSMLNVGKYTLADGGGNAFDVAVIFAANINYDTGTKTAYLHFNENVQRVLDNAVTQIRPLQQQGIKVLLSVLGNHQGAGFANFPSQQAASAFAKQLSDAVAKYGLDGVDFDDEYAEYGNNGTAQPNDSSFVHLVTALRANMPDKIISLYNIGPAASRLSYGGVDVSDKFDYAWNPYYGTWQVPGIALPKAQLSPAAVEIGRTSRSTVADLARRTVDEGYGVYLTYNLDGGDRTADVSAFTRELYGSEAVRTP | No binding | significant inhibition | West Nile virus binding to treated membrane proteins of N2A cells (VOPBA) [5]: No binding
17 | Papain (protein, UniProt P00784 134-345, looked up, Papain (EC 3.4.22.2) from Carica papaya, a cysteine endopeptidase) Papain: IPEYVDWRQKGAVTPVKNQGSCGSCWAFSAVVTIEGIIKIRTGNLNEYSEQELLDCDRRSYGCNGGYPWSALQLVAQYGIHYRNTYPYEGVQRYCRSREKGPYAAKTDGVRQVQPYNEGALLYSIANQPVSVVLEAAGKDFQLYRGGIFVGPCGNKVDHAVAAVGYGPNYILIKNSWGTGWGENGYIRIKRGTGNSYGVCGLYTSSFYPVKN | abolished | – | West Nile virus binding after removal of papain (VOPBA) [3]: No virus binding; log unit inhibition of West Nile virus infection (West Nile virus [4]; virus titers at 12 hours p.i., with respect to untreated samples): ~5 log unit; West Nile virus binding to treated membrane proteins of N2A cells (VOPBA) [5]: abolished
18 | vitronectin (protein, UniProt P04004 20-478, looked up, ECM protein, physiological ligand for integrin αVβ3) Vitronectin: DQESCKGRCTEGFNVDKKCQCDELCSYYQSCCTDYTAECKPQVTRGDVFTMPEDEYTVYDDGEEKNNATVHEQVGGPSLTSDLQAQSKGNPEQTPVLKPEEEAPAPEVGASKPEGIDSRPETLHPGRPQPPAEEELCSGKPFDAFTDLKNGSLFAFRGQYCYELDEKAVRPGYPKLIRDVWGIEGPIDAAFTRINCQGKTYLFKGSQYWRFEDGVLDPDYPRNISDGFDGIPDNVDAALALPAHSYSGRERVYFFKGKQYWEYQFQHQPSQEECEGSSLSAVFEHFAMMQRDSWEDIFELLFWGRTSAGTRQPQFISRDWHGVPGQVDAAMAGRIYISGMAPRPSLAKKQRFRHRNRKGYRSQRGHSRGRNQNSRRPSRATWLSLFSSEESNLGANNYDDYRMDWLVPATCEPIQSVFFFSGDKYYRVNLRTRRVDTVDPPYPRSIAQYWLGCPAPGHL | – | – | inhibition of West Nile virus infection by competitive ligands (West Nile virus [1]): partial inhibition
